Results on 2 compounds are retold here after patent US11198680B2 (BioAxone BioSciences, Inc., priority 2016, dated 2021).

The structures appear in SMILES notation. Like-named read-outs stand apart in the source and are kept apart here. Bounds are passed on as bounds.

For one data set, the system named is AMPK (1 and 2). The data set can be described thus: KINOMEscan kinome screen. On the set-up: species or system human. The following applies: percent of negative control binding; 100% equals no interference. The text has this: (§1) The KINOMEscan™ screening platform (DiscoverX, Fremont, Calif.) employs a novel active site-directed competition binding assay to quantitatively measure interactions between test compounds and more than 450 human kinases and disease relevant mutant variants. […] Compounds that bind the kinase active site and directly (sterically) or indirectly (allosterically) prevent kinase binding to the immobilized ligand, will reduce the amount of kinase captured on the solid support. […] Screening “hits” are identified by measuring the amount of kinase captured in test versus control samples by using a quantitative, precise and ultra-sensitive qPCR method that detects the associated DNA label.
(§2) Kinase-tagged T7 phage strains were grown in parallel in 24-well blocks in an E. coli host derived from the BL21 strain. E. coli were grown to log-phase and infected with T7 phage from a frozen stock (multiplicity of infection=0.4) and incubated with shaking at 32° C. until lysis (90-150 minutes). The lysates were centrifuged (6,000×g) and filtered (0.2 μm) to remove cell debris. The remaining kinases were produced in HEK-293 cells and subsequently tagged with DNA for qPCR detection (Wein, et al. (2016) Nat. Comm. 7). […] Test compounds were prepared as 40× stocks in 100% DMSO and directly diluted into the assay. All reactions were performed in polypropylene 384-well plates in a final volume of 0.02 ml.

Another data set has as its system GCN. The data set can be described thus: KINOMEscan kinome screen. On the set-up: species or system human. The following applies: percent of negative control binding.
From the text: as §1, §2

The test system of data set [1] is Rho/ROCK activity (MLC2 diphosphorylation) in HUVECs. The data set can be described thus: LPA-treated HUVECs, pMLC2 T18/S19 immunoblot. Type of data set: cell-based, human. On the technique in general: In western blotting, separated proteins are transferred to a membrane and probed.
Description: Cell lines were exposed to each dose for 1 hr, and then are stimulated with 20 μM LPA for either 5 min or 1 hr as described below. All experiments were conducted in triplicate and analyzed by two independent assessors blinded to both cell line and treatment.
Cells were subjected to biochemical analysis of diphosphorylated MLC2 (Threonine 18/Serine 19 phosphorylation sites) and cofilin (Serine 9 phosphorylation site) using SDS-PAGE and immunoblotting. Cells were plated in 24-well tissue culture plates coated with 70 μg/ml rat collagen-1 (Corning; Corning, N.Y.), and grown for 2 d to 3 d at 37° C./5% CO2 until confluency. […] Then medium was exchanged for Medium 200 supplemented with 0.1% HSA (Sigma-Aldrich) and 20 μM of LPA (Santa Cruz Biotech; Santa Cruz, Calif.) and incubated for 5 min. After LPA stimulation, proteins were extracted from cells by lysis with RIPA buffer supplemented with HALT complete protease/phosphatase inhibitor (ThermoFisher, Waltham, Mass.), reduced and denatured using Laemmli sample buffer (BioRad, Hercules, Calif.)/beta-mercaptoethanol and subjected to SDS-PAGE.
Denatured samples were electrophoresed in reducing 10% Bis-Tris-gels polyacrylamide gels (Novex; Thermo-Fisher, Waltham, Mass.) and were transferred onto 0.25 μm PVDF membranes (EMD Millipore, Billerica, Mass.). Membranes are probed using amti-pMLC2 T18/S19 (1:500; Cell Signaling, Danvers, Mass.) or anti-pCofilin S9 (1:500, Cell Signaling, Danvers, Mass.) and anti-glyceraldehyde 3-phosphate dehydrogenase loading control (GAPDH, 1:10000; Abcam). Protein levels were detected using chemiluminescence substrate (Super Signal West, ThermoFisher, Waltham, Mass.) and images captured using a FluoroChem SP Imaging System.
The next data set deals with ROCK1. Conditions: percent of negative control binding; second row printed ROCK1, text says ROCK1 and ROCK2.
From the text: as §1, §2

The target of data set [2] is T1, ROCK2 (Homo sapiens (Human), UniProt O75116). The following applies: ratio of dissociation constants ROCK1/ROCK2.
Description: (§6) The assay is performed by combining the DNA-tagged kinase, immobilized ligand, and a test compound. The ability of the test compound to compete with the immobilized ligand is measured via quantitative PCR of the DNA tag.
(§7) The highest concentration tested was 30 μM.
For a further data set, the target named is 5-HT2b-receptor (Homo sapiens (Human), UniProt P41595). The experiment in a line: SAFETYscan off-target panel. Format: cell-based. The following applies: 10 μM. The procedure:
(§3) The SAFETYscan™ (DiscoverX) is used for rapid testing of any compound against a panel that includes well-known membrane proteins of importance for drug development such as selected voltage-gated ion channels, G-protein coupled receptors, neurotransmitter transporters and also a selected group of purified cellular enzymes.
(§4) Cell lines engineered to express individual transmembrane receptor proteins such as the muscarinic acetylcholine receptor or the dopamine D1 receptor were grown in culture in their standard growth medium until reaching confluence. […] The experiment also contains controls for comparison including known agonists and antagonists of the targeted membrane proteins.
(§5) For assays using purified enzymes, an enzyme assay is set up in standard reaction buffer and necessary indicators for activity such as co-factors, buffers and synthetic substrates. […] As positive controls, a binding assay using Rho kinase (ROCK) was included in the panel. Other targets in the panel included G-protein coupled receptors, nuclear hormone receptors, intracellular non-kinase enzymes, ion channels, and neurotransmitter transporters. The specific targets were chosen because of their previous known associations with being the source of problematic off-target effects in cellular or whole animal studies.

Data set [3] has as its target T1, ROCK2. The data set can be described thus: biochemical.
Description: as §6, §7
Data set [4] deals with ROCK2 activation (phospho-cofilin). The experiment in a line: Transient MCAO stroke model, phospho-cofilin Western blot left versus right brain. Format: in vivo, mouse.
Description: The murine intraluminal monofilament model of middle cerebral artery occlusion (MCAO) is used on mice in this study. MCAO involves the insertion of a surgical filament into the external carotid artery and threading it forward into the internal carotid artery until the tip occludes the origin of the MCA, resulting in a cessation of blood flow and subsequent brain infarction in the MCA territory. The technique is used herein to model transient occlusion. If the filament is removed after 1 h, reperfusion is achieved (transient MCAO). This study determines the most efficacious dose and route of administration that reduce Rho-kinase 2 (ROCK2) activation following transient MCAO-induced stroke in mice. The pharmacodynamic response is also determined in this study.
Twenty-eight 9-wk old C57BL/6 (Charles River Laboratories) were used in this study. For surgery, the mouse was placed in a supine position on an infrared heating pad. The fur over the ventral neck was shaved and the skin was disinfected with 70% ethanol and povidone iodine. Under a stereo dissecting microscope, a 1 cm midline incision was made on the neck and retractors were used to expose the left common carotid artery (CCA), the external carotid artery (ECA) and the internal carotid artery (ICA). The arteries were carefully dissected to free them from surrounding nerves and fascia. The ECA was dissected further distally and two 8-0 silk sutures are tied around the ECA stump and a vascular clamp was applied at the bifurcation of the CCA into the ECA and ICA. A small incision was made at the end of ECA stump with Vannas-style spring scissors. A blunt 5-0 monofilament suture (Doccol) was inserted into the incision and advanced from the lumen of the ECA into the ICA for a distance of 9-10 mm beyond the bifurcation of CCA to occlude the origin of MCA. For the mouse model, a distance of 9 mm-11 mm rostral to the CCA bifurcation is inserted. After 60 min., the monofilament was removed. The incision was sutured with 4.0 prolene sutures. […] The mouse is allowed to recover on a heating pad until thermoregulation is re-established.
For Western blot analysis, mice were anesthetized using isoflurane and decapitated. […]
20 μL protease inhibitor (Halt, Protease, Fisher Scientific, Pittsburgh, Pa.) and 10 μL phosphatase inhibitor (Fisher Scientific) were added to 1 mL RIPA buffer (Santa Cruz Biotechnology, Dallas, Tex.). […] The protein concentration of each sample was determined using the DC Protein Assay Kit and following the manufacturer's instructions.
The left and right hemispheres of each brain were homogenized and prepared for Western blotting, and the signal of phospho-cofilin was measured quantitatively by densitometry compared to an internal standard, cyclophilin. […]
Data set [5] can be described thus: SAFETYscan off-target panel, all targets. Conditions: 10 μM; except 5-HT2b-receptor. The method, then:
as §3, §4, §5

Another data set deals with rat hepatocytes. The data set can be described thus: Metabolism in cultured hepatocytes. Format: in vitro ADME. The procedure: Test articles were incubated in duplicate rat hepatocytes at 37° C. The reaction contained […] KHB buffer, a pH 7.4. At indicated times (0 min, 15 min, 30 min, 60 min, 120 min), an aliquot was removed from each experimental and control reaction and mixed with an equal volume of ice-cold methanol. Stopped reactions were incubated at least ten minutes at −20° C. The samples were centrifuged to remove precipitated protein, and the supernatants were analyzed by LC-MS/MS.

The nature of data set [6]: Daily repeat dosing for 2 weeks in normal mice, adverse effects. Format: in vivo, mouse.
Description: In a separate set of experiments, daily repeat dosing experiments were performed to assess adverse effects. […] During the course of the experiment, animals were monitored daily for the appearance of any clinical signs. Hematology, blood chemistry, and histopathology were followed at termination of the experiment.
Data set [7] concerns the target T1, ROCK2. The experiment in a line: Direct filter-binding radiometric kinase assay, IC50 determination. Type of data set: biochemical.
Another data set deals with canine hepatocytes. The data set can be described thus: Metabolism in cultured hepatocytes. Format: in vitro ADME. Conditions: Dog hepatocytes.

Sequence of 5-HT2b-receptor (P41595 whole entry): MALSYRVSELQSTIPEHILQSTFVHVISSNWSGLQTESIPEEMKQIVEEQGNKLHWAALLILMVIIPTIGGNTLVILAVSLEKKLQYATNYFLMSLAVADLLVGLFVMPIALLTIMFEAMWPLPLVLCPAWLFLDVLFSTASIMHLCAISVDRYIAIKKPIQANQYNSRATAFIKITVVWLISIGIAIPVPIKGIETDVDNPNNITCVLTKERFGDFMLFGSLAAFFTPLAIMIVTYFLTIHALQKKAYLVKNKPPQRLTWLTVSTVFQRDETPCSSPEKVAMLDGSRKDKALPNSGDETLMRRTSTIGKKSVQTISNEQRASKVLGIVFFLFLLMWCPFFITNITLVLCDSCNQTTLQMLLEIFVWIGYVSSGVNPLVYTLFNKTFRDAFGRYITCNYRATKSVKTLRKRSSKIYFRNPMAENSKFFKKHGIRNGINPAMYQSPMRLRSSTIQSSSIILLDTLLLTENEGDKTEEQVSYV

With `C[C@@H](N)C1CCN(S(=O)(=O)c2cccc3c(=O)[nH]ccc23)CC1` [1-hydroxy-BA-1049 (R)], the “% Negative Binding, AMPK (1 and 2)” value in the data set on AMPK (1 and 2) was 100%. Besides, the “% Negative Binding, GCN” value in the data set with GCN was 96%. Moreover, the “concentration fully abolishing MLC2 diphosphorylation” value in data set [1] (20 μM LPA) was ≥ 10 µM. In addition, in data set [1] (1-100 μM 1 hr, 20 μM LPA 5 min), the “effect on MLC2 diphosphorylation (pMLC2 T18/S19)” value was “reduce MLC2 diphosphorylation”. The “% Negative Binding, ROCK1” value with ROCK1 is 0.35%.

Regarding `C[C@@H](N)C1CCN(S(=O)(=O)c2cccc3cnccc23)CC1` [BA-1049 (R)], the “Fractional Selectivity for ROCK2” value on ROCK2 [2] came out at 1.86. Further, the “interaction with the 5-HT2b-receptor” value on 5-HT2b-receptor was “potential antagonistic interaction”. Also, the Kd (as a rule, the free concentration of one partner at which half of the binding sites on the other are occupied at equilibrium, for simple one-to-one binding) at ROCK2 [3] (ROCK2 KD, average of duplicate determinations, Table 5) amounted to 63 nM; on ROCK2 [3] (ROCK2 Kd, Table 1) it was 59 nM. Moreover, in [4] (10 mg/kg after reperfusion, examined 4 hr or 24 hr), the “duration of efficacy on phospho-cofilin” value is “at least 24 hr”. Further, in [4] (daily repeat dosing), the minimal effective levels result is “less than 1 mg/kg”. The “minimal effective dose to reverse ROCK activation” value in data set [4] (single intraperitoneal application, phospho-cofilin left versus right brain) came to 1 mg/kg. Besides, in data set [5], the “activity against targets in the total SAFETYscan” value is given as “no activity against any of the targets in the total SAFETYscan™”. The “½ Life” value is on record as 60 min with rat hepatocytes and >480 min in the data set with canine hepatocytes. Moreover, the “findings in daily repeat dosing” value in data set [6] (1 mg/kg and 10 mg/kg once daily I.P. for 2 weeks) was “no abnormal findings”. In addition, the “no observed effect level dose” value in data set [6] (2 week repeat dose, I.P.) came out at 10 mg/kg. Further, the IC50 (as a rule, the midpoint of a concentration-inhibition curve) on ROCK2 [7] (10 μM ATP, Table 2, read-out: Compound IC50 ROCK2) is 240 nM; on ROCK2 [7] (Compound IC50 ROCK2 10 μM ATP, CRO Eurofins, 10 μM ATP), 240 nM; on ROCK2 [7] (Compound IC50 ROCK2 10 μM ATP, CRO Reaction Biology, 10 μM ATP) it was 340 nM; on ROCK2 [7] (Compound IC50 ROCK2 15 μM ATP, Km ATP 15 μM, Table 3), 340 nM; on ROCK2 [7] (Compound IC50 ROCK2 15 μM ATP, Km ATP 15 μM, Table 7), 340 nM; on ROCK2 [7] (read-out: Compound IC50 ROCK2 10 μM ATP, CRO Eurofins, 10 μM ATP), 240 nM. In the data set on canine hepatocytes, the metabolism by hepatocytes entry is “do not show any detectable metabolism”.
